Assay results as given in PMC12720098, “Prolintane analogs as hybrid monoamine transporter ligands: Structural determinants and species differences” (The Journal of Biological Chemistry, 2025).
Like-named read-outs stand apart in the source and are kept apart here.

Legend:
Assay type in all cases: cell-based
hDAT = biological target: T1, hDAT (Homo sapiens, UniProt Q01959); assay: Uptake inhibition assay ([3H]DA) in transfected HEK293 cells; conditions: for DAT/SERT ratio: human isoform (h), 1/DAT IC50 / 1/SERT IC50
T1 construct: expressed in transfected cells
Experimental: HEK293 cells stably expressing human monoamine transporters hSERT, hDAT or hNET were seeded into poly-D-lysine (PDL) coated 96-well plates with a density of approximately 36,000 cells per well 1 day prior to experiments. A day after seeding, the cell medium was replaced with 200 μl Krebs-HEPES-buffer (KHB; 120 mM NaCl, 3 mM KCl, 2 mM CaCl2·2H2O, 2 mM MgCl2·6H2O, 20 mM D-glucose, pH = 7.3). The test drugs were initially dissolved in Milli-Q H2O or dimethyl sulfoxide (DMSO) at a concentration of 10 to 100 mM. Then, cells were treated with the respective concentration of the test drug diluted in KHB for 5 min as a pre-incubation step. Subsequently, in the uptake step, the solution was replaced with 50 μl/well diluted drug solution and tritiated substrate (hDAT: 0.1 μM [^3H]DA; hNET: 0.02 μM [^3H]MPP^+; hSERT: 0.1 μM [^3H]5-HT) for 1 min (hDAT, hSERT) or 3 min (hNET). After incubation, cells were immediately washed with 200 μl KHB to stop uptake. Uptake was indirectly measured by quantifying beta emission with liquid scintillation counting (Wallac 1450 MicroBeta TriLux Liquid Scintillation Counter & Lumi; GMI). Therefore, 200 μl Ultima Gold XR scintillation cocktail (PerkinElmer, MA, USA) was added to each well.
(§1) Half-maximal inhibitory concentrations (IC50) were obtained from fitting a sigmoidal dose–response ( Y=Bottom+Top−Bottom/1+10^((LogIC50−X)·HillSlope) ) in GraphPad Prism 10.3.1 (GraphPad Software Inc.). Uptake inhibition data were evaluated by one-way ANOVA followed by Tukey's multiple comparisons test. Release data were analyzed using a two-way ANOVA (batch release) or a mixed-effects model with Geisser-Greenhouse correction (time-dependent traces) employing Šidák correction for comparing differences between compounds with or without the addition of monensin.

hSERT [1] = biological target: T2, hSERT (Homo sapiens, UniProt P31645); conditions: drug alone vs drug + monensin (Mon)
T2 construct: expressed in transfected cells
Experimental: A day prior to the experiment, HEK293 cells stably expressing hSERT or rat SERT (rSERT) were seeded at a density of 100,000 cells per channel into 6 channel flow ibidi slides (Gräfelfing, Germany). On the day of the experiments, cells were preloaded with 0.1 μM [^3H]5-HT at 37 °C, 5% CO2 for 20 min. Subsequently, the slides were transferred to the superfusion apparatus ([59]). Cells were then washed with KHB for 15 min under a constant flow of 0.5 ml/min. Fractions were collected every 2 min in 8 ml vials containing 2 ml scintillation cocktail. Collection began with three baseline fractions using KHB, followed by four additional basal release fractions with KHB, either with or without 10 μM monensin. […] To assess residual radioactivity within the cells, they were lysed with 1% sodium dodecyl sulfate (SDS), and three final fractions were obtained. The measured tritiated substrate in each fraction was expressed as a percentage of the initial tritiated substrate present at the start of that fraction.
as §1

hSERT [2] = biological target: T2, hSERT; conditions: normalized to 10 µM 5-HT current
Experimental: One day prior to recording, either native HEK293 cells or HEK293 cells stably expressing monoamine transporters were seeded at low density onto PDL-coated 35 mm dishes. Patch-clamp experiments were conducted at a holding potential of −60 mV, with substrate-induced currents recorded at room temperature (20–24 °C) using an […] amplifier and pClamp 11.2 software (MDS Analytical Technologies). During recordings, cells were continuously superfused via a DAD-12 perfusion system and an 8-tube manifold (ALA Scientific Instruments), delivering an external solution composed of 140 mM NaCl, 2.5 mM CaCl2, 3 mM KCl, 2 mM MgCl2, 20 mM glucose, and 10 mM HEPES, with pH adjusted to 7.3 using NaOH. The intracellular pipette solution, designed to mimic physiological ionic conditions, contained 133 mM potassium gluconate, 5.9 mM NaCl, 1 mM CaCl2, 0.7 mM MgCl2, 10 mM HEPES, and 10 mM EGTA, with pH set to 7.2 using KOH. Currents were filtered at 1 kHz and digitized at 10 kHz via a Digidata 1550 digitizer (MDS Analytical Technologies), followed by analysis in Clampfit 10.2 (Molecular Devices). Substance-induced currents were normalized to the current elicited by a saturating concentration of 5-HT (10 μM) of the same cell. Holding currents were subtracted, and a 50 Hz digital Gaussian low-pass filter was applied to the traces for further analysis.

T1 sequence (Q01959 whole entry, canonical isoform): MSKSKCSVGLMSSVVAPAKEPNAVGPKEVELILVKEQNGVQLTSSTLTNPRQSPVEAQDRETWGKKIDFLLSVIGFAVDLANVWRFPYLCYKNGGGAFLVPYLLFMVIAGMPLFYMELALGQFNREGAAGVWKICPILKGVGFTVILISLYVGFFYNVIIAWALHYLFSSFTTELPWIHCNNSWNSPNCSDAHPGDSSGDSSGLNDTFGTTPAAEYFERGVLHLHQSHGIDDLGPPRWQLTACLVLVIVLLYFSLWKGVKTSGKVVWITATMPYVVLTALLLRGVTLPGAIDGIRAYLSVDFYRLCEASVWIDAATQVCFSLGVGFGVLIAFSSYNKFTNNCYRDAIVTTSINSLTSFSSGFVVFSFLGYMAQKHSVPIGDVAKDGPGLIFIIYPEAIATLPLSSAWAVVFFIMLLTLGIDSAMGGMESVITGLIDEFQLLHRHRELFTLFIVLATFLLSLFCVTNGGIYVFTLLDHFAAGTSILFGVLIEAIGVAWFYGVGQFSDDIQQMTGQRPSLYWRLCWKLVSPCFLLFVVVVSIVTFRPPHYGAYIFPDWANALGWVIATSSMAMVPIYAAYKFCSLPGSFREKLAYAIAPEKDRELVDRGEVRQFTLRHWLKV
T2 sequence (P31645 whole entry): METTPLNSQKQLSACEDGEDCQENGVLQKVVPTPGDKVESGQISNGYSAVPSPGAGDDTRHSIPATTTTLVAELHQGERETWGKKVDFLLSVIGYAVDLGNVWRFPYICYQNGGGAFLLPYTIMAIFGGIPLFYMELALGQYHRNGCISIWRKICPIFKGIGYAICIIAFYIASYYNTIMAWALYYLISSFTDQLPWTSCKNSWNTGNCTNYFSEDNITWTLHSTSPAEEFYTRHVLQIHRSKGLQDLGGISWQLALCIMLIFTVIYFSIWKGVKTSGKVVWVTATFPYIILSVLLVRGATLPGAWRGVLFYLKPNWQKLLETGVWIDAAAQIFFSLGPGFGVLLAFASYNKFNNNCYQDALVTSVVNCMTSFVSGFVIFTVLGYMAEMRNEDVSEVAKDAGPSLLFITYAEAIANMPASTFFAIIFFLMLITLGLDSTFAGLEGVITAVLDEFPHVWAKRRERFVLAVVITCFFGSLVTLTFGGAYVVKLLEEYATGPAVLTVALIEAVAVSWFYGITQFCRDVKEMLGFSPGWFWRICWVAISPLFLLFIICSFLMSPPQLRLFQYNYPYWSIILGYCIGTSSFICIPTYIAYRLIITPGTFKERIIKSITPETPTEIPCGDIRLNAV

SMILES | IC50 (hDAT) [nM] | DAT/SERT ratio (hDAT) | Mean diff, hSERT efflux ± Mon (Šídák's multiple comparisons test) (hSERT [1]; Row 1 (time fraction)) | Mean diff, hSERT efflux ± Mon (Šídák's multiple comparisons test) (hSERT [1]; Row 2 (time fraction)) | Mean diff, hSERT efflux ± Mon (Šídák's multiple comparisons test) (hSERT [1]; Row 3 (time fraction)) | Mean diff, hSERT efflux ± Mon (Šídák's multiple comparisons test) (hSERT [1]; Row 4 (time fraction)) | Mean diff, hSERT efflux ± Mon (Šídák's multiple comparisons test) (hSERT [1]; Row 5 (time fraction)) | Mean diff, hSERT efflux ± Mon (Šídák's multiple comparisons test) (hSERT [1]; Row 6 (time fraction)) | Mean diff, hSERT efflux ± Mon (Šídák's multiple comparisons test) (hSERT [1]; Row 7 (time fraction)) | Mean diff, hSERT efflux ± Mon (Šídák's multiple comparisons test) (hSERT [1]; Row 8 (time fraction)) | Mean diff, hSERT efflux ± Mon (Šídák's multiple comparisons test) (hSERT [1]; Row 9 (time fraction)) | Mean diff, hSERT efflux ± Mon (Šídák's multiple comparisons test) (hSERT [1]; Row 10 (time fraction)) | Mean diff, hSERT efflux ± Mon (Šídák's multiple comparisons test) (hSERT [1]; Row 11 (time fraction)) | Mean diff, hSERT efflux ± Mon (Šídák's multiple comparisons test) (hSERT [1]; Row 12 (time fraction)) | Mean of normalized currents elicited through hSERT by drug application (hSERT [2]) | inhibitory potency at hDAT compared to pyrovalerone (hDAT; pyrovalerone value ref 53)
CCCC(Cc1ccccc1F)N1CCCC1 (stereo not shown) [2-Fluoroprolintane, 1-[1-(2-fluorophenyl)pentan-2-yl]pyrrolidine] | 109 ± 19 | 323 | -0.05533 | -0.01811 | -0.031 | -0.05989 | -0.128 | -0.2267 | -0.3166 | -4.727 | -7.079 | -7.103 | -6.897 | -6.561 | 0.28 | –
CCCC(Cc1ccc(C)cc1)N1CCCC1 (stereo not shown) [4-Methylprolintane, 1-[1-(4-methylphenyl)pentan-2-yl]pyrrolidine] | 16 ± 2 | 159 | -0,002444 | 0,005667 | -0,04278 | -0,1390 | -0,3006 | -0,3681 | -0,4242 | -4,103 | -5,748 | -5,723 | -5,744 | -5,949 | 0.21 | four-fold greater
CCCC(Cc1ccc(F)cc1)N1CCCC1 (stereo not shown) [4-Fluoroprolintane, 1-[1-(4-fluorophenyl)pentan-2-yl]pyrrolidine] | 109 ± 41 | 179 | -0,0007778 | 0,02200 | 0,004889 | -0,08044 | -0,1983 | -0,2323 | -0,3017 | -8,349 | -9,598 | -8,382 | -7,454 | -6,666 | 0.3167 | –
